For 38 compounds, IC50 results are on record in US11084814B2, “Pyrido[3, 4-d]pyrimidine derivative and pharmaceutically acceptable salt thereof” (Teijin Pharma Limited, priority 2016, dated 2021).

For one assay, the target named is T1, CDK2/cyclin A2 (Homo sapiens, UniProt P24941).
T1 construct: purchased Carna Biosciences, Inc. QS S Assist CDK2/Cyclin A2_FP Kit
The experiment in a line: Human CDK2/cyclin A2 inhibitory activity (QS S Assist CDK2/Cyclin A2_FP Kit, IMAP fluorescent polarization). The format is biochemical. Conditions: read-out: CDK2 Activity symbol. In outline: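 Kit CDK2/cyclin A2 (2.5 ng/well) was reacted with kit ATP/substrate/metal in 20 mM HEPES pH 7.4, 0.01% Tween 20 and 2 mM DTT for 60 min at room temperature. IMAP binding reagent was added for 30 min, then fluorescence polarization was read at 485/535 nm. IC50 came from dose-response fitting of percent inhibition.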

The target of the next assay is T2, CDK4/cyclin D3 (Homo sapiens, UniProt P11802).
T2 construct: purchased Carna Biosciences, Inc. QS S Assist CDK4/Cyclin D3_FP Kit
The experiment in a line: Human CDK4/cyclin D3 inhibitory activity (QS S Assist CDK4/Cyclin D3_FP Kit, IMAP fluorescent polarization). The format is biochemical. Conditions: read-out: CDK4 Activity symbol. In outline: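 Kinase reactions used kit CDK4/cyclin D3 at 12.5–25 ng/well with the kit ATP/substrate/metal mix in 20 mM HEPES (pH 7.4), 0.01% Tween20 and 2 mM DTT, run 45 min at room temperature. Phosphorylation was detected by IMAP fluorescence polarization (ex 485/em 535 nm) after 30 min binding in the dark. IC50 was fitted from percent inhibition against DMSO controls with and without enzyme.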

T2 sequence (P11802 whole entry): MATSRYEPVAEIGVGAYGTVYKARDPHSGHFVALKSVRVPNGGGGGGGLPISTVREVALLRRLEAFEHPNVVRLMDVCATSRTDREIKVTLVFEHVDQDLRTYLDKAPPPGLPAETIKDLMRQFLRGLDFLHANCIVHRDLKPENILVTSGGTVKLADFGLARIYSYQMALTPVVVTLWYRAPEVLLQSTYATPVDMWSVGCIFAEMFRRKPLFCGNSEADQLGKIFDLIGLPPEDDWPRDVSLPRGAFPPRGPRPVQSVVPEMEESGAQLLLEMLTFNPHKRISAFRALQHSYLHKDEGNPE
T2 sequence (P30281 whole entry partner): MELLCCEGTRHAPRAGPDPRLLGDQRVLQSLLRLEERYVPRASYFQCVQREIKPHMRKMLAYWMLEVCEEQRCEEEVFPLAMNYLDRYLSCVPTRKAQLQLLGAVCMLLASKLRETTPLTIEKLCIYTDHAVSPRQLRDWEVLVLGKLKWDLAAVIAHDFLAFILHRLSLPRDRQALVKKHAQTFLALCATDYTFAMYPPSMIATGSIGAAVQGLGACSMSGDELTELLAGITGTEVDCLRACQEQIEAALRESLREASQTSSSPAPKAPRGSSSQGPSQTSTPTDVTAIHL

For `C[C@@H]1CCN(c2nc([C@@H](C)O)cc3cnc(Nc4ccc(CN5CCN(CCO)CC5)cn4)nc23)C1` [Compound 100], the IC50 was at least 0.1 µM on CDK2/cyclin A2 and under 0.01 µM on CDK4/cyclin D3.

In the case of `CN(C)CCN1CCc2nc(Nc3ncc4cc(CCO)nc(N5CCCCC5)c4n3)ccc2C1` [Compound 110], the figures for the IC50 at CDK2/cyclin A2 and on CDK4/cyclin D3 were at least 0.1 µM and under 0.01 µM, respectively.

In the case of `C[C@@H](O)c1cc2cnc(Nc3ccc4c(n3)CCN(C3COC3)C4)nc2c(N2CCCCC2)n1` [Compound 161], the IC50 on CDK2/cyclin A2 is at least 0.1 µM; on CDK4/cyclin D3 it was under 0.01 µM.

`CC(O)c1cc2cnc(Nc3ccc4c(n3)CCN(C(=O)CN3CC5(COC5)C3)C4)nc2c(N2C3CCC2CC3)n1` (stereo not shown) [Compound 236]: the values for the IC50 at CDK2/cyclin A2 and at CDK4/cyclin D3 were at least 0.1 µM and under 0.01 µM, respectively.

Turning to `Cc1ccccc1-c1nc(C(F)F)cc2cnc(Nc3ccc(N4CCNCC4)cn3)nc12` [Compound 30], the figures for the IC50 at CDK2/cyclin A2 and on CDK4/cyclin D3 were at least 0.1 µM and under 0.01 µM, respectively.

For `OCc1cc2cnc(Nc3ccc(N4CCNCC4)cn3)nc2c(N2CCOCC2)n1` [Compound 7], the IC50 is at least 0.1 µM on CDK2/cyclin A2 and under 0.01 µM on CDK4/cyclin D3.

As for `C[C@@H](O)c1cc2cnc(Nc3ccc(CN4CCC5(CC4)COC5)cn3)nc2c(N2CCCCC2)n1` [Compound 325], the IC50 at CDK2/cyclin A2 is at least 0.1 µM; at CDK4/cyclin D3 it was under 0.01 µM.

As to `C[C@@H](O)c1cc2cnc(Nc3ccc4c(n3)CCN(CCCO)C4)nc2c(N2CCCCC2)n1` [Compound 130], the IC50 is at least 0.1 µM on CDK2/cyclin A2 and under 0.01 µM on CDK4/cyclin D3.

Take `C[C@@H](O)c1cc2cnc(Nc3ccc4c(n3)CCN(C(=O)Cn3ccnn3)C4)nc2c(N2CCCCC2)n1` [Compound 336]: the IC50 on CDK2/cyclin A2 was at least 0.1 µM; at CDK4/cyclin D3, 0.01 to 0.1 µM.

Take `C[C@@H](O)c1cc2cnc(Nc3ccc(O[C@H]4CCCN(CCO)C4)cn3)nc2c(N2CCC[C@H](F)C2)n1` [Compound 255]: the IC50 on CDK2/cyclin A2 is at least 0.1 µM; at CDK4/cyclin D3, under 0.01 µM.

As to `Cc1nc(Nc2ncc3cc([C@@H](C)O)nc(N4C5CCC4COC5)c3n2)ccc1N1CCNCC1` [Compound 298], the IC50 on CDK2/cyclin A2 was at least 0.1 µM; at CDK4/cyclin D3, under 0.01 µM.

With `CC(O)c1cc2cnc(Nc3ccc(N4CCNCC4=O)cn3)nc2c(N2CCCC2C)n1` (stereo not shown) [Compound 302], the IC50 at CDK2/cyclin A2 was 0.01 to 0.1 µM; on CDK4/cyclin D3, under 0.01 µM.

Regarding `C[C@H](CO)c1cc2cnc(Nc3ccc4c(n3)CCN(CCO)C4)nc2c(N2CCCCC2)n1` [Compound 193], the values for the IC50 at CDK2/cyclin A2 and on CDK4/cyclin D3 were at least 0.1 µM and 0.01 to 0.1 µM, respectively.

Consider `C[C@@H](O)c1cc2cnc(Nc3ccc4c(n3)CCN(C(=O)[C@@H]3CCN(C)C3)C4)nc2c(N2C3CCC2CC3)n1` [Compound 226], for which the IC50 at CDK2/cyclin A2 was at least 0.1 µM; at CDK4/cyclin D3, under 0.01 µM.

For `C[C@@H](O)c1cc2cnc(Nc3ccc(OC4CCNCC4)cn3)nc2c(N2C3CCC2CC3)n1` [Compound 220], the values for the IC50 at CDK2/cyclin A2 and on CDK4/cyclin D3 were at least 0.1 µM and under 0.01 µM, respectively.

On to `C[C@@H](O)c1cc2cnc(Nc3ccc4c(n3)CCN([C@H]3CC[C@H](O)CC3)C4)nc2c(N2CCCCC2)n1` [Compound 283], for which the IC50 was at least 0.1 µM at CDK2/cyclin A2 and 0.01 to 0.1 µM at CDK4/cyclin D3.

As for `C[C@@H](O)c1cc2cnc(Nc3ccc(CN4CCN(C)CC4)cn3)nc2c(N2CCOCC2(C)C)n1` [Compound 322], the IC50 was at least 0.1 µM on CDK2/cyclin A2 and under 0.01 µM at CDK4/cyclin D3.

`C[C@@H](O)c1cc2cnc(Nc3ccc(N4CCN(C)CC4=O)cn3)nc2c(N2CCCC2)n1` [Compound 73]: the results for the IC50 at CDK2/cyclin A2 and on CDK4/cyclin D3 were at least 0.1 µM and 0.01 to 0.1 µM, respectively.

In the case of `C[C@@H](O)c1cc2cnc(Nc3ccc(CN4CCC(O)CC4)cn3)nc2c(N2CCCCC2)n1` [Compound 65], the IC50 on CDK2/cyclin A2 is at least 0.1 µM; at CDK4/cyclin D3 it was under 0.01 µM.

For `CC(O)c1cc2cnc(Nc3ccc(CN4CCN(C)CC4)cn3)nc2c(N2C3CCC2COC3)n1` (stereo not shown) [Compound 292], the figures for the IC50 on CDK2/cyclin A2 and on CDK4/cyclin D3 were at least 0.1 µM and under 0.01 µM, respectively.

For the compound `C[C@@H](O)c1cc2cnc(Nc3ccc(O[C@H]4CCCNC4)cn3)nc2c(N2CCC[C@H](F)C2)n1` [Compound 251], the IC50 at CDK2/cyclin A2 is at least 0.1 µM; on CDK4/cyclin D3 it was under 0.01 µM.

For `CN1CCN(c2ccc(Nc3ncc4cc(CO)nc(N5CCCCC5=O)c4n3)nc2)CC1` [Compound 3], the IC50 at CDK2/cyclin A2 and on CDK4/cyclin D3 was at least 0.1 µM each time.

Take `C[C@@H](O)c1cc2cnc(Nc3ccc4c(n3)CCN(C(=O)[C@H]3CCCN3)C4)nc2c(N2CCCCC2)n1` [Compound 209]: the IC50 on CDK2/cyclin A2 was at least 0.1 µM; on CDK4/cyclin D3, under 0.01 µM.

For the compound `Cc1nc(Nc2ncc3cc([C@@H](C)O)nc(N4CCCCC4)c3n2)ccc1N1CCNCC1=O` [Compound 260], the IC50 at CDK2/cyclin A2 is at least 0.1 µM; at CDK4/cyclin D3 it was under 0.01 µM.

Turning to `C[C@@H](O)c1cc2cnc(Nc3ccc(CN4CCN(C)[C@@H](C)C4)cn3)nc2c(N2C3CCC2CC3)n1` [Compound 189], the IC50 was at least 0.1 µM at CDK2/cyclin A2 and under 0.01 µM on CDK4/cyclin D3.

`C[C@@H](O)c1cc2cnc(Nc3ccc(CN4CCN(C)CC4)cn3)nc2c(N2CCCC2)n1` [Compound 55]: the IC50 at CDK2/cyclin A2 is at least 0.1 µM; at CDK4/cyclin D3 it was under 0.01 µM.

As to `CC(O)c1cc2cnc(Nc3ccc(CN4CCN(CCO)CC4)cn3)nc2c(N2CCCC2C)n1` (stereo not shown) [Compound 83], the figures for the IC50 on CDK2/cyclin A2 and at CDK4/cyclin D3 were 0.01 to 0.1 µM and under 0.01 µM, respectively.

Regarding `C[C@@H](O)Cc1cc2cnc(Nc3ccc(CN4CCN(CCO)CC4)cn3)nc2c(N2CCCCC2)n1` [Compound 168], the values for the IC50 at CDK2/cyclin A2 and at CDK4/cyclin D3 were at least 0.1 µM and 0.01 to 0.1 µM, respectively.

Consider `C[C@@H](O)c1cc2cnc(Nc3ccc4c(n3)CCN(C3CN(C)C3)C4)nc2c(N2CCC(C#N)CC2)n1` [Compound 279], for which the IC50 on CDK2/cyclin A2 was at least 0.1 µM; at CDK4/cyclin D3, under 0.01 µM.

`C[C@@H](O)c1cc2cnc(Nc3ccc(N4CCNCC4)cn3)nc2c(N2CCOC[C@@H]2C)n1` [Compound 288]: the IC50 at CDK2/cyclin A2 is at least 0.1 µM; on CDK4/cyclin D3 it was under 0.01 µM.

Take `C[C@@H](O)c1cc2cnc(Nc3ccc(CN4CCN(CCO)CC4)cn3)nc2c(N2CCC[C@H](F)C2)n1` [Compound 180]: the IC50 is at least 0.1 µM on CDK2/cyclin A2 and under 0.01 µM on CDK4/cyclin D3.

On to `Cc1nc(Nc2ncc3cc([C@@H](C)O)nc(N4CCCCC4)c3n2)ccc1N1CCN(CCO)CC1` [Compound 88], for which the values for the IC50 at CDK2/cyclin A2 and on CDK4/cyclin D3 were at least 0.1 µM and under 0.01 µM, respectively.

On to `C[C@@H](O)c1cc2cnc(Nc3ccc(N4CCN(C)CC4)nn3)nc2c(N2CCCCC2)n1` [Compound 123, (R)-1-(2-((6-(4-methylpiperazin-1-yl)pyridazin-3-yl)amino)-8-(piperidin-1-yl)pyrido[3,4-d]pyrimidin-6-yl)ethanol], for which the results for the IC50 on CDK2/cyclin A2 and on CDK4/cyclin D3 were at least 0.1 µM and under 0.01 µM, respectively.

As to `C[C@@H](O)c1cc2cnc(Nc3ccc(N4CCNCC4=O)cn3)nc2c(-c2ccccc2)n1` [Compound 191], the IC50 is at least 0.1 µM at CDK2/cyclin A2 and 0.01 to 0.1 µM on CDK4/cyclin D3.

With `CCC(O)c1cc2cnc(Nc3ccc(N4CCNCC4)cn3)nc2c(N2CCOCC2)n1` (stereo not shown) [Compound 34], the IC50 on CDK2/cyclin A2 was at least 0.1 µM; at CDK4/cyclin D3 it was 0.01 to 0.1 µM.

As to `C[C@@H](O)c1cc2cnc(Nc3ccc(CN4CCN(CCO)CC4)cn3)nc2c(N2CCC(F)(F)CC2)n1` [Compound 79], the IC50 on CDK2/cyclin A2 is at least 0.1 µM; at CDK4/cyclin D3, under 0.01 µM.

On to `CC[C@@H](O)c1cc2cnc(Nc3ccc(N4CCNCC4=O)cn3)nc2c(N2CCC[C@H]2C)n1` [Compound 245], for which the IC50 at CDK2/cyclin A2 is at least 0.1 µM; on CDK4/cyclin D3, under 0.01 µM.

With `C[C@@H](O)c1cc2cnc(Nc3ccc(CN4CCN(CCO)CC4)cn3)nc2c(N2CC[C@H](F)C2)n1` [Compound 181], the results for the IC50 on CDK2/cyclin A2 and on CDK4/cyclin D3 were at least 0.1 µM and 0.01 to 0.1 µM, respectively.
